In general, bioavailability refers to the share of a dose that reaches the circulation, judged against a reference dose that is usually intravenous. Low values mean poor availability, high ones good availability. The IC50 is the midpoint of a concentration-inhibition curve. Broadly, the pKa is the pH at which an ionisable group is half protonated. Low readings indicate a group that gives up its proton readily, high ones a group that holds its proton tightly. By half-life is commonly meant how long it takes for the measured level to halve. High values mean slow decline, low ones rapid decline. For orientation: Kp means the ratio of the level in a tissue or fluid to that in plasma or blood. For orientation: logD means lipophilicity at a set pH, counting ionised and neutral species. A high value points to higher lipophilicity. As a reminder, the CL/F is the apparent clearance, not corrected for the fraction that reaches the circulation.

From ChEMBL document CHEMBL1777804, “Part 3: Design and synthesis of proline-derived α2δ ligands” (Bioorg Med Chem Lett, 2011) come the findings set out here.

Series [1] is described as follows: Plasma protein binding in rat. The series is classed as ADME, cell-free. To be noted: read-out: PPB (converted).
Series [2] in a line: Oral bioavailability in rat. The series is classed as ADME, organism-based. As to conditions: in vivo.
Series [3] in a line: Displacement of [3H]gabapentin from Voltage-dependent calcium channel subunit alpha-2/delta in pig cerebral cortex. It counts as tissue-based, Sus scrofa.
A short description of series [4]: Dissociation constant, pKa of the compound. It counts as physicochemical.
A short description of series [5]: Half life in rat. The series is classed as ADME, organism-based. To be noted: in vivo.
The species entered for series [6] is Rattus norvegicus. The series can be described thus: Unbound clearance in rat urine. It counts as ADME, organism-based. To be noted: in vivo.
Series [7] is described as follows: Plasma protein binding in human. It counts as ADME, cell-free. To be noted: read-out: PPB (converted).
The nature of series [8]: Ratio of drug level in CSF to plasma in rat. The series is classed as ADME.
A short description of series [9]: Lipophilicity, log D of the compound. It counts as physicochemical. As to conditions: octanol/water.
Series [10] can be described thus: Clearance in dog at 0.5 mg/kg, po. The series is classed as ADME, organism-based, Canis lupus familiaris. The arrangement: dose 0.5 mg/kg, route oral. To be noted: in vivo.
The nature of series [11]: Half life in dog at 0.5 mg/kg, po. As to conditions: in vivo. The series is classed as ADME, organism-based, Canis lupus familiaris. The arrangement: dose 0.5 mg/kg, route oral.
Series [12] in a line: Inhibition of Voltage-dependent calcium channel subunit alpha-2/delta.

Consider `O=C(O)[C@@H]1C[C@H](Oc2cccc(Cl)c2)CN1`, for which the fraction unbound in [1] was 0.19. In series [2], this molecule had a bioavailability of 100%. For the same molecule, the half-maximal inhibitory concentration (IC50) in series [3] came out at 4 nM. This molecule also had a pKa in series [4] of 8.9. Besides, in [5], the half-life was 0.4 h. In series [6], the CL was determined as 41 mL/min/kg.

Turning to `O=C(O)[C@@H]1C[C@H](COc2cccc(Cl)c2)CN1`, the IC50 in series [3] amounted to 13 nM.

As for `Cl.O=C(O)[C@@H]1C[C@H](Cc2cccc(F)c2)CN1`, the fraction unbound in series [7] is 0.73; in series [1], 0.82. The Kp in series [8] came out at 0.004. In addition, the logD in [9] was determined as 0.1. The same molecule returned a CL/F in series [10] of 0.4 mL/min/kg. The same molecule yielded a bioavailability in series [2] of 89%. The IC50 in series [3] is 17 nM. In series [4], this molecule showed a pKa of 10.1. Moreover, the half-life in [11] was 26 h; in [5], 1.6 h. In [6], this molecule showed a CL of 6 mL/min/kg.

As for `O=C(O)[C@@H]1C[C@H](OCc2ccc(Cl)cc2)CN1`, the fraction unbound in series [1] is 0.65. In series [3], the IC50 turned out to be 48 nM. For the same molecule, the CL in series [6] stood at 26 mL/min/kg.

With `O=C(O)[C@@H]1C[C@H](Cc2ccccc2F)CN1`, the IC50 in series [3] turned out to be 108 nM.

On to `O=C(O)[C@@H]1C[C@H](COc2cccc(F)c2)CN1`, for which the fraction unbound is 0.32 in [7] and 0.91 in [1]. In [9], this molecule registered a pH-dependent lipophilicity (logD) of -0.3. For the same molecule, the IC50 in series [3] stood at 25 nM. The same molecule had a half-life in [5] of 1.4 h. In [6], this molecule gave a CL of 7 mL/min/kg.

In the case of `O=C(O)[C@@H]1C[C@H](Cc2ccccc2Cl)CN1`, the fraction unbound in [1] was 0.67. Moreover, in series [9], the logD is 0.6. Also, the IC50 in series [3] was found to be 8 nM. The molecule further gave a half-life in series [5] of 0.5 h. In series [6], this molecule had a CL of 15 mL/min/kg.

As for `O=C(O)[C@@H]1C[C@H](Cc2cc(Cl)ccc2Cl)CN1`, the IC50 in series [3] was 5 nM.

For the molecule `O=C(O)[C@@H]1C[C@H](Cc2cccc(OC(F)(F)F)c2)CN1`, in series [3], the half-maximal inhibitory concentration (IC50) worked out at 4 nM.

On to `CCc1cccc(C[C@@H]2CN[C@H](C(=O)O)C2)c1`, for which the IC50 in [3] was found to be 27 nM.

For `O=C(O)[C@@H]1C[C@H](Cc2cccc(F)c2F)CN1`, the half-inhibitory concentration (IC50) in series [3] came to 27 nM.

Take `COc1cccc(C[C@@H]2CN[C@H](C(=O)O)C2)c1`: in series [3], the IC50 was 28 nM.

As for `O=C(O)[C@@H]1C[C@H](Cc2cc(F)ccc2F)CN1`, the IC50 in series [3] stood at 10 nM.

On to `O=C(O)[C@@H]1C[C@H](Cc2ccccc2)CN1`, for which the IC50 in series [3] is 272 nM.

With `O=C(O)[C@H]1C[C@@H](Cc2cccc(F)c2)CN1`, in series [3], the IC50 was above 10000 nM.

Turning to `NCC1(CC(=O)O)CCCCC1` [GABAPENTIN], the IC50 in series [12] came to 140 nM.

`CC(C)C[C@H](CN)CC(=O)O` [PREGABALIN]: the half-maximal inhibitory concentration (IC50) in [12] was 80 nM.
